How the values were obtained:
[1] = Toxicity against brine shrimp assessed as mortality at 25 ppm after 6 hrs; format: organism-based; details: artemia, in vivo; read-out: Activity
[2] = Toxicity against brine shrimp assessed as mortality at 25 ppm after 24 hrs; format: organism-based; details: artemia, in vivo; read-out: Activity
[3] = Toxicity against brine shrimp assessed as mortality at 25 ppm after 8 hrs; format: organism-based; details: artemia, in vivo; read-out: Activity
[4] = Toxicity against brine shrimp assessed as mortality at 25 ppm after 4 hrs; format: organism-based; details: artemia, in vivo; read-out: Activity
[5] = test system: Artemia; assay: Toxicity against brine shrimp assessed as mortality at 25 ppm; format: organism-based; details: in vivo
[6] = test system: Euphorbia esula; assay: Phytotoxicity against Euphorbia esula assessed as necrotic lesions at 5 ug by nicked leaf assay; format: functional

CC(=O)/C=C/C(C)=C(\C)c1c[nH]c2ccccc12
mortality at 6 h, 25 ppm [1]: 20% | mortality at 24 h, 25 ppm [2]: 70% | mortality at 8 h, 25 ppm [3]: 20% | mortality at 4 h, 25 ppm [4]: 20%

NC(=O)Cc1ccccc1
Activity [5]: Not Active

O=C(CO)c1c[nH]c2ccccc12
Activity [5]: Not Active

CC(=O)/C=C/c1ccc(C)c(C)c1C
mortality at 6 h, 25 ppm [1]: 50% | mortality at 24 h, 25 ppm [2]: 100% | mortality at 8 h, 25 ppm [3]: 90% | mortality at 4 h, 25 ppm [4]: 0%

CC(=O)/C=C/Cc1c[nH]c2ccccc12
mortality at 6 h, 25 ppm [1]: 0% | mortality at 24 h, 25 ppm [2]: 91% | Activity [6]: 2 mm | mortality at 8 h, 25 ppm [3]: 27% | mortality at 4 h, 25 ppm [4]: 0%

CC(=O)c1nccc2c1[nH]c1ccccc12
mortality at 6 h, 25 ppm [1]: 21% | mortality at 24 h, 25 ppm [2]: 100% | mortality at 8 h, 25 ppm [3]: 43% | mortality at 4 h, 25 ppm [4]: 14%

Cc1cccc2c1[nH]c1ccccc12
mortality at 6 h, 25 ppm [1]: 100% | mortality at 4 h, 25 ppm [4]: 82%

CC(=O)/C=C/c1c[nH]c2ccccc12
mortality at 6 h, 25 ppm [1]: 0% | mortality at 24 h, 25 ppm [2]: 39% | mortality at 8 h, 25 ppm [3]: 8% | mortality at 4 h, 25 ppm [4]: 0%
